This is an account of results in paper doi:10.1101/2024.07.16.603720v1 (biorxiv, 2024).

In brackets after ≈: the same amount, converted by molar mass. A value given as a limit tells only on which side of the number the result lay.

Data set [1] addresses T1, sDacD (sPBP6b) (Acinetobacter baumannii, UniProt A0ABX6CI93).
T1 sequence (A0ABX6CI93 22-409): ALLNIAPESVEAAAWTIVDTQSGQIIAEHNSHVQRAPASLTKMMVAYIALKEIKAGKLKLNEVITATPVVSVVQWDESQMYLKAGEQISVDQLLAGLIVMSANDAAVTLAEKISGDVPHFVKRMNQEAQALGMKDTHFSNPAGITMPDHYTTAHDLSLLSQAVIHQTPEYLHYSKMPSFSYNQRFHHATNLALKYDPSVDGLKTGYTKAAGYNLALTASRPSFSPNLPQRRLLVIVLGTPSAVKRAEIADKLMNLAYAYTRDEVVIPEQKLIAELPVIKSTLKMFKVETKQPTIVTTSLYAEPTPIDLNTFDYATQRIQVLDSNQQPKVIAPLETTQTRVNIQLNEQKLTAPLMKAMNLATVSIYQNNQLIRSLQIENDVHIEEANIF
The data set can be described thus: Bocillin FL competition, SDS-PAGE fluorescence. In kind it is binding.

Data set [2] addresses T2, sDacC (sPBP5/6) (Acinetobacter baumannii, UniProt G1C735).
T2 sequence (G1C735 20-367): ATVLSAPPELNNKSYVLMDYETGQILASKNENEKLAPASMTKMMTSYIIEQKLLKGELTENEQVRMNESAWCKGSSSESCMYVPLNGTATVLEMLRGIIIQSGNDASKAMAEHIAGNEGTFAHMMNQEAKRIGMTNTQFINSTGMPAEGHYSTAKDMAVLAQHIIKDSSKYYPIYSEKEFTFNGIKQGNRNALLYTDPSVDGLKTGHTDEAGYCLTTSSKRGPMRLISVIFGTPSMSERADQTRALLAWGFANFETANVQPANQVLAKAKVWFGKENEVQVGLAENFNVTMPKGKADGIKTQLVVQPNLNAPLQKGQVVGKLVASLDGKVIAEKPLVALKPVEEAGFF
Description: Bocillin FL competition, SDS-PAGE fluorescence. In kind it is binding.

The subject of data set [3] is A. baumannii AB19606 WT (19606). The data set can be described thus: microbe, parasite or virus in culture. Set-up: species or system Acinetobacter baumannii AB19606. The conditions noted are these: Acinetobacter baumannii, read-out: MIC.
For data set [4], the target named is T1, sDacD (sPBP6b). Description: biochemical.
Data set [5] addresses T2, sDacC (sPBP5/6). Description: biochemical.
Substrate in data set [6]: NC(=O)c1cc[n+](CC2=C(C(=O)O)N3C(=O)[C@@H](NC(=O)[C@@H](c4ccccc4)S(=O)(=O)[O-])[C@H]3SC2)cc1
Description: purified protein, by the assay type. Conditions: pH 7.4; 30.0 °C.

Substrate in data set [7]: C[C@@H](O)[C@H]1C(=O)N2C(C(=O)O)=C(S[C@@H]3CN[C@H](CNS(N)(=O)=O)C3)[C@H](C)[C@H]12
Description: purified protein, by the assay type. Conditions: pH 7.4; 30.0 °C.

Substrate in data set [8]: CC(C)(O/N=C(\C(=O)N[C@@H]1C(=O)N2C(C(=O)[O-])=C(C[n+]3ccccc3)CS[C@H]12)c1csc(N)n1)C(=O)O
The data set can be described thus: purified protein, by the assay type. Conditions: pH 7.4; 30.0 °C.

Substrate in data set [9]: C[C@@H](O)[C@H]1C(=O)N2C(C(=O)O)=C(S[C@@H]3CN[C@H](C(=O)N(C)C)C3)[C@H](C)[C@H]12
Description: purified protein, by the assay type. Conditions: pH 7.4; 30.0 °C.

Substrate in data set [10]: CC1(C)S[C@@H]2[C@H](NC(=O)Cc3ccccc3)C(=O)N2[C@H]1C(=O)O
The data set can be described thus: purified protein. Conditions: 10 mM phosphate, pH 7.4, 30 °C.

Substrate in data set [11]: C[C@@H](O)[C@H]1C(=O)N2C(C(=O)O)=C(SCCN=CN)C[C@H]12
The data set can be described thus: purified protein. The conditions noted are these: 10 mM phosphate, pH 7.4, 30 °C.

Substrate in data set [12]: CC1(C)S[C@@H]2[C@H](NC(=O)[C@H](C(=O)O)c3ccsc3)C(=O)N2[C@H]1C(=O)O
Description: purified protein. Conditions: 10 mM phosphate, pH 7.4, 30 °C.

Substrate in data set [13]: CO/N=C(\C(=O)N[C@@H]1C(=O)N2C(C(=O)O)=C(COC(C)=O)CS[C@H]12)c1csc(N)n1
Description: purified protein. Conditions: 10 mM phosphate, pH 7.4, 30 °C.

With `C[C@@H](O)[C@H]1C(=O)N2C(C(=O)O)=C(S[C@@H]3CN[C@H](C(=O)N(C)C)C3)[C@H](C)[C@H]12` [Meropenem], the IC50 (commonly the concentration at which inhibition is half-maximal) on sDacD (sPBP6b) [1] worked out at 2.7 µM; on sDacC (sPBP5/6) [2] it was 15.7 µM. The MIC in data set [3] came to 1.6 µg/mL (≈ 4.17 µM).

`CCN1CCN(C(=O)N[C@@H](C(=O)N[C@@H]2C(=O)N3[C@@H]2SC(C)(C)[C@@H]3C(=O)O)c2ccccc2)C(=O)C1=O` [PIP, Piperacillin]: the half-inhibitory concentration (IC50) against sDacD (sPBP6b) [4] came to 3280 µM; against sDacC (sPBP5/6) [5], 539 µM. The MIC in data set [3] was 500 µg/mL (≈ 966 µM).

For the molecule `CC1(C)S[C@@H]2[C@H](NC(=O)[C@H](N)c3ccc(O)cc3)C(=O)N2[C@H]1C(=O)O` [AMX, Amoxicillin], the MIC in [3] amounted to 1000 µg/mL (≈ 2740 µM).

As to `C=CC1=C(C(=O)O)N2C(=O)[C@@H](NC(=O)/C(=N\OCC(=O)O)c3csc(N)n3)[C@H]2SC1` [Cefixime], the concentration for half-maximal inhibition (IC50) at sDacD (sPBP6b) [1] amounted to 52.8 µM; on sDacC (sPBP5/6) [2] it was 20.9 µM.

`NC(=O)c1cc[n+](CC2=C(C(=O)[O-])N3C(=O)[C@@H](NC(=O)[C@@H](c4ccccc4)S(=O)(=O)O)[C@H]3SC2)cc1` [Cefsulodin]: the IC50 on sDacD (sPBP6b) [1] worked out at 8.6 µM; on sDacC (sPBP5/6) [2] it was 6.3 µM. For the same molecule, the MIC in data set [3] amounted to 250 µg/mL (≈ 469 µM).

On to `O=C(O)[C@H]1/C(=C/CO)O[C@@H]2CC(=O)N21` [Clavulanic acid], for which the IC50 on sDacD (sPBP6b) [1] was determined as 5.8 µM.

Regarding `CC1(C)S[C@@H]2[C@H](NC(=O)Cc3ccccc3)C(=O)N2[C@H]1C(=O)O` [Penicillin G], the MIC in [3] was greater than 2000 µg/mL.

Take `C[C@@H](O)[C@H]1C(=O)N2C(C(=O)O)=C(S[C@@H]3CN[C@H](CNS(N)(=O)=O)C3)[C@H](C)[C@H]12` [Doripenem]: the IC50 turned out to be 1.7 µM at sDacD (sPBP6b) [1] and 9.2 µM on sDacC (sPBP5/6) [2]. In data set [3], the MIC came to 1.6 µg/mL (≈ 3.8 µM).

On to `C[C@]1(Cn2ccnn2)[C@H](C(=O)O)N2C(=O)C[C@H]2S1(=O)=O` [Tazobactam], for which the results for the half-maximal inhibitory concentration (IC50) against sDacD (sPBP6b) [4] and against sDacC (sPBP5/6) [5] were 1590 µM and 1830 µM, respectively.

`CO[C@@]1(NC(=O)Cc2cccs2)C(=O)N2C(C(=O)O)=C(COC(N)=O)CS[C@@H]21` [FOX, Cefoxitin]: the MIC in data set [3] came to 500 µg/mL (≈ 1170 µM).

Regarding `CC1(C)[C@H](C(=O)O)N2C(=O)C[C@H]2S1(=O)=O` [Sulbactam], the IC50 stood at 3.8 µM at sDacD (sPBP6b) [1] and 184 µM against sDacC (sPBP5/6) [5].

`Cc1onc(-c2ccccc2)c1C(=O)N[C@@H]1C(=O)N2[C@@H]1SC(C)(C)[C@@H]2C(=O)O` [Oxacillin]: the IC50 on sDacD (sPBP6b) [1] was 417 µM; on sDacC (sPBP5/6) [2], 95.9 µM. In data set [3], the MIC was determined as 500 µg/mL (≈ 1250 µM).

Regarding `CO/N=C(\C(=O)N[C@@H]1C(=O)N2C(C(=O)O)=C(COC(C)=O)CS[C@H]12)c1csc(N)n1` [Cefotaxime], in data set [3], the MIC turned out to be 64 µg/mL (≈ 141 µM).

For `CC(C)(O/N=C(\C(=O)N[C@@H]1C(=O)N2C(C(=O)[O-])=C(C[n+]3ccccc3)CS[C@H]12)c1csc(N)n1)C(=O)O` [CAZ, Ceftazidime], the MIC in [3] is 16 µg/mL (≈ 29.3 µM).

In the case of `CO/N=C(\C(=O)N[C@@H]1C(=O)N2C(C(=O)O)=C(COC(N)=O)CS[C@H]12)c1ccco1` [Cefuroxime], the concentration for half-maximal inhibition (IC50) on sDacD (sPBP6b) [1] was determined as 161 µM; on sDacC (sPBP5/6) [2], 12.9 µM. Moreover, the MIC in [3] came to 500 µg/mL (≈ 1180 µM).

Take `CC1(C)S[C@@H]2[C@H](NC(=O)[C@H](C(=O)O)c3ccsc3)C(=O)N2[C@H]1C(=O)O` [Ticarcillin]: the MIC in data set [3] turned out to be 16 µg/mL (≈ 41.6 µM).

B1: sDacC (sPBP5/6) (Acinetobacter baumannii) (protein)
chain: T2 sequence (G1C735 20-367)
As for B1, the Km – broadly, the substrate concentration at which the rate is half of its maximum – in [6] was 21.21 µM; in data set [7], 17.39 µM; in data set [8] it was 21.09 µM; in [9], 12.19 µM; in the data set “purified protein [10]” it was 8.2 ± 1.4 µM; in “purified protein [11]”, 3.75 ± 0.4 µM. Besides, the Km in the data set “purified protein [12]” came to 12.47 ± 2.5 µM; in the data set “purified protein [13]”, 6.09 ± 0.9 µM. In addition, the kcat – broadly, the maximal rate divided by the concentration of active sites – in [6] came to 12.2 s⁻¹; in data set [7], 5.35 s⁻¹; in [8], 8.36 s⁻¹; in data set [9], 10 s⁻¹; in the data set “purified protein [10]”, 65.81 ± 12.5 s⁻¹; in “purified protein [11]” it was 7.52 ± 0.5 s⁻¹. The kcat turned out to be 93.31 ± 9.0 s⁻¹ in the data set “purified protein [12]” and 7.04 ± 1.1 s⁻¹ in “purified protein [13]”. In addition, the specificity constant (kcat/Km) (as a rule, the second-order rate constant that governs catalysis at low substrate concentration) in data set [6] came to 570000 M⁻¹ s⁻¹; in data set [7], 310000 M⁻¹ s⁻¹; in data set [8], 390000 M⁻¹ s⁻¹; in data set [9], 820000 M⁻¹ s⁻¹.
